# Columns and labels:
# [1] = Example 4: body weight, food and water intake, side effects in normal and OA-dosed rats; format: in vivo, Sprague-Dawley rats
# Protocol: Materials and Methods. To produce hyperuricemia, rats received OA (Sigma, St Louis Mo., USA) 750 mg/kg body weight daily by gastric gavage. To investigate the treatment effect of febuxostat (also referred to herein as “Fx”), the drug was administered in drinking water at 50 mg/L (approximately 5-6 mg/kg/day) four weeks after OA dosing while the respective controls received 5.84 mg/L of NaCl in drinking water (to maintain a salt concentration equivalent to the Febuxostat-containing water). The following four groups (n=10-11) were included in the study: Group 1, normal control rats which received no treatment for eight weeks; Group 2, Normal+Febuxostat rats which received no treatment for four weeks and then were treated with febuxostat for four weeks from Weeks 5 to 8; Group 3, OA rats which received OA for eight weeks; and Group 4, OA+Febuxostat rats which received OA for eight weeks and febuxostat for four weeks from Weeks 5 to 8. Body weight, food and water intakes were measured daily. Systolic blood pressure, obtained in conscious rats by a tail cuff sphygmomanometer, and plasma uric acid were measured in all animals at baseline and at the end of four and eight weeks. A renal micropuncture procedure along with systemic arterial blood pressure monitoring under pentobarbital anesthesia were performed at the end of eight weeks followed by morphologic evaluation of the renal preglomerular microvasculature.
# Evaluation. Food and water intake were determined daily. Systolic blood pressure (hereinafter “SBP”) was measured in conscious animals by a tail cuff sphygmomanometer using an automated system (XBP-100, Kent Scientific Co, USA). All animals were preconditioned for blood pressure measurements one week before each experiment. Plasma UA, insulin and triglycerides were quantified using commercial kits (Diagnostic Chemicals Ltd, USA; Crystalchem, USA and Spinreact, Spain, respectively).
# Statistical Analysis. Values were expressed as mean±standard error of the mean (hereinafter “SEM”). In the study, values from the respective four treatment groups were analyzed by one-way analysis of variance (hereinafter “ANOVA”). When the ANOVA p value was <0.05, the following comparisons were made using Bonferroni multiple comparison test: Normal Control vs. Normal+Fx, Normal Control vs. OA, Normal Control vs. OA+Fx and OA vs. OA+Fx. Pair wise comparisons were performed using contrast within the framework of the statistical model.
# [2] = system: oxonic acid (OA)-induced hyperuricemic model in Sprague-Dawley rats; assay: Example 4: plasma uric acid in normal and OA-dosed rats; format: in vivo
# Protocol: (§1) Materials and Methods. To produce hyperuricemia, rats received OA (Sigma, St Louis Mo., USA) 750 mg/kg body weight daily by gastric gavage. To investigate the treatment effect of febuxostat (also referred to herein as “Fx”), the drug was administered in drinking water at 50 mg/L (approximately 5-6 mg/kg/day) four weeks after OA dosing while the respective controls received 5.84 mg/L of NaCl in drinking water (to maintain a salt concentration equivalent to the Febuxostat-containing water). […] Body weight, food and water intakes were measured daily. Systolic blood pressure, obtained in conscious rats by a tail cuff sphygmomanometer, and plasma uric acid were measured in all animals at baseline and at the end of four and eight weeks. […]
# (§2) Evaluation. Food and water intake were determined daily. Systolic blood pressure (hereinafter “SBP”) was measured in conscious animals by a tail cuff sphygmomanometer using an automated system (XBP-100, Kent Scientific Co, USA). […] Plasma UA, insulin and triglycerides were quantified using commercial kits (Diagnostic Chemicals Ltd, USA; Crystalchem, USA and Spinreact, Spain, respectively).
# (§3) Statistical Analysis. Values were expressed as mean±standard error of the mean (hereinafter “SEM”). In the study, values from the respective four treatment groups were analyzed by one-way analysis of variance (hereinafter “ANOVA”). […]
# [3] = system: oxonic acid (OA)-induced hyperuricemic model in Sprague-Dawley rats; assay: Example 4: systolic blood pressure by tail cuff in conscious normal and OA-dosed rats; format: in vivo; settings: FIG. 2
# Protocol: as §1, §2, §3
# [4] = Normal + Fx rats, End of Week 4 (before Fx)
# [5] = Normal + Fx rats, End of Week 8
# [6] = Normal + Fx rats, Week 1 (before Fx)
# [7] = Normal + Fx rats, Week 4 (before Fx)
# [8] = OA + Fx rats, End of Week 4 (before Fx)
# [9] = OA + Fx rats, Week 1 (before Fx)
# [10] = OA + Fx rats, Week 4 (before Fx)
smiles,measurement,setting,value
"Cc1nc(-c2ccc(OCC(C)C)c(C#N)c2)sc1C(=O)O [febuxostat, 2-[3-cyano-4-(2-methylpropoxy)phenyl]-4-methylthiazole-5-carboxylic acid]",BW,"[1]; Normal + Fx rats, Baseline (Fx 50 mg/L in drinking water Weeks 5 to 8), mean ± SEM",319.9 ± 3.0 gr
same,% BW gain from baseline,[1]; [4],11.9 ± 1.8%
same,BW,[1]; [4],359.3 ± 7.2 gr
same,% BW gain from Week 4,[1]; [5],6.6 ± 0.8 %
same,% BW gain from baseline,[1]; [5],18.7 ± 1.8%
same,BW,[1]; [5],377.7 ± 7.5 gr
same,Daily Food intake,[1]; [6],18.3 ± 0.6 gr
same,Daily Water intake,[1]; [6],34.5 ± 2.4 mL
same,Daily Food intake,[1]; [7],16.0 ± 0.7 gr
same,Daily Water intake,[1]; [7],32.3 ± 1.4 mL
same,Daily Food intake,"[1]; Normal + Fx rats, Week 8",18.0 ± 0.4 gr
same,Daily Water intake,"[1]; Normal + Fx rats, Week 8",39.7 ± 1.7 mL
same,BW,"[1]; OA + Fx rats, Baseline (Fx 50 mg/L in drinking water Weeks 5 to 8), mean ± SEM",323.6 ± 3.2 gr
same,% BW gain from baseline,[1]; [8],6.7 ± 1.7%
same,BW,[1]; [8],345.3 ± 5.7 gr
same,% BW gain from Week 4,"[1]; OA + Fx rats, End of Week 8",5.2 ± 0.7 %
same,% BW gain from baseline,"[1]; OA + Fx rats, End of Week 8",12.3 ± 1.9%
same,BW,"[1]; OA + Fx rats, End of Week 8",363.2 ± 5.7 gr
same,Daily Food intake,[1]; [9],15.1 ± 0.7 gr
same,Daily Water intake,[1]; [9],36.6 ± 2.2 mL
same,Daily Food intake,[1]; [10],17.4 ± 0.7 gr
same,Daily Water intake,[1]; [10],33.8 ± 2.4 mL
same,Daily Food intake,"[1]; OA + Fx rats, Week 8",18.6 ± 0.4 gr
same,Daily Water intake,"[1]; OA + Fx rats, Week 8",42.6 ± 2.3 mL
same,behaviour and side effects,"[1]; all rats, eight-week study",no side effects were observed
same,plasma uric acid levels (effect in words),"[2]; OA-dosed rats, febuxostat added beginning at 4 weeks, FIG. 1",reduced the uric acid levels back into the normal range
same,uric acid levels relative to control,"[2]; normal rats receiving febuxostat, difference not statistically significant",approximately 53 % of control values
same,systolic blood pressure by tail cuff (effect in words),[3]; OA-dosed conscious rats,significant but partial decrease in systolic BP
same,systolic blood pressure by tail cuff (effect in words),[3]; normal conscious rats,did not alter blood pressure in normal rats

# — patent publication US20140329868A1, “METHODS FOR TREATING HYPERTENSION” (TAKEDA PHARMACEUTICALS U.S.A., INC., priority 2005, published 2014)
